Assay [1] addresses T1, Full length WRN protein (aa 2-1432) (Homo sapiens (Human), UniProt Q14191). Description: WRN ATPase ADP-Glo biochemical assay, Assay Format A (10 μM ATP). The note with it: 0.25 nM WRN, 100 nM C6.18 ssDNA, 30 min preincubation, read-out: ATPase ADPGlo AC50 (uM)- Assay Format A. Summed up: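 ADP-Glo luminescence measured hydrolysis of ATP by purified, baculovirus-expressed N-terminally tagged full-length WRN. Enzyme (0.5 nM) was preincubated 30 min with compound, then 200 nM ssDNA C6.18 plus 20 μM ATP were added (pre-mix levels) for 30 min at RT. IC50s come from four-parameter fits, geometric mean of at least two trials.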
A general note: ADP-Glo first removes unused ATP, then detects ADP through luciferase.

Assay [2] deals with T1, Full length WRN protein (aa 2-1432). Description: WRN ATPase ADP-Glo biochemical assay, Assay Format B (100 μM ATP). Conditions: 0.25 nM WRN, 100 nM C6.18 ssDNA, 60 min preincubation, read-out: ATPase ADPGlo AC50 (uM)- Assay Format B.
Assay [3] has as its system HCT116 cells. As to the kind of experiment: HCT116 (MSI) 7 day viability, CellTiter Glo. It is filed as cell-based. The note with it: Homo sapiens, HCT-116, 168 h, 7 days, read-out: HCT116 (MSI) Viability 7 Day Abs AC50. Put shortly:
(§1)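 For each line, compound dilution series (3-fold, 10 points) met a defined seeding density—HCT116 50, HT29 500 cells/well—followed by 7 days at 37 °C. Luminescent ATP signal, background-corrected with no-cell wells, gave four-parameter logistic IC50s.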
In general terms: In ATP-based viability assays light output follows the ATP content of the culture.

Assay [4] deals with HT29 cells. Description: HT29 (MSS) 7 day viability, CellTiter Glo. Conditions: Homo sapiens, HT-29, 168 h, 7 days, read-out: HT29 (MSS) Viability 7 Day CTGAbs AC50. It is filed as cell-based. Summed up: as §1

Each structure is given as a SMILES string.

T1 sequence (Q14191 2-1432): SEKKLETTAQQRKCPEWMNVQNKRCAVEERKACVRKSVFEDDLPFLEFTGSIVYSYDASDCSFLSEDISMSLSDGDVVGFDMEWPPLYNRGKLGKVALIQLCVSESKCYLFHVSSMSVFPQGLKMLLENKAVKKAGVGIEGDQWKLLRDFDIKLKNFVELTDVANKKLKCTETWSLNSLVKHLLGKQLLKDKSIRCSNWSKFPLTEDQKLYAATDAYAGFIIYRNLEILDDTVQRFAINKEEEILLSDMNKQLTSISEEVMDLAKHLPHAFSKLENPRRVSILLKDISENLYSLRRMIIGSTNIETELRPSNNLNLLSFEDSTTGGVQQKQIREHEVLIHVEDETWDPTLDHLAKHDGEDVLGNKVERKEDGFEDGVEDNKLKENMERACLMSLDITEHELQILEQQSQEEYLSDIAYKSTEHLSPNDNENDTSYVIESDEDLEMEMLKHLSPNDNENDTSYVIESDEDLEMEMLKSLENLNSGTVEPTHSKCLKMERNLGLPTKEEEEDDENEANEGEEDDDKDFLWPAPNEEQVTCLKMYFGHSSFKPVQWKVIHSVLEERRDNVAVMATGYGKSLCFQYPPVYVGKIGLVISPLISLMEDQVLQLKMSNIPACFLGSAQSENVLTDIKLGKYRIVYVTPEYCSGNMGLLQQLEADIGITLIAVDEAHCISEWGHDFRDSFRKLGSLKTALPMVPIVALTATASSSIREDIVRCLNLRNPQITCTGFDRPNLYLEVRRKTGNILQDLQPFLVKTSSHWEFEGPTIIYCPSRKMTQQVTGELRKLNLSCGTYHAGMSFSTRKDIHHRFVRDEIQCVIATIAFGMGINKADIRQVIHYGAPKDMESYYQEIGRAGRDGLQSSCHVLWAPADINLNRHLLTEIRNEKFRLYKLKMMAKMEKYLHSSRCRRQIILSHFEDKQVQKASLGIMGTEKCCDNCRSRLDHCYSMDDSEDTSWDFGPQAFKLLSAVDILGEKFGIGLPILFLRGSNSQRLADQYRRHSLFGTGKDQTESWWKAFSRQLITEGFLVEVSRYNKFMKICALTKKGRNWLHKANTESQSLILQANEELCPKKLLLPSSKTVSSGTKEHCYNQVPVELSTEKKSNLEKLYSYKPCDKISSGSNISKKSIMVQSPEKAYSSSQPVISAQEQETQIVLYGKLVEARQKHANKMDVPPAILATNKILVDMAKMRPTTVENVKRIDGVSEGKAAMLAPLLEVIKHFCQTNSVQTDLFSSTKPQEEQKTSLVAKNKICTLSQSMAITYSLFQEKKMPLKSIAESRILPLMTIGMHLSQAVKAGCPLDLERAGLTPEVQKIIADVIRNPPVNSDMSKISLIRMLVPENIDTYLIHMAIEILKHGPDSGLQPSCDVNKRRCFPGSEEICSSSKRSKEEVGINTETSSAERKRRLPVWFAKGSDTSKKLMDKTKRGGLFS

Usually AC50 stands for the midpoint of the concentration-response curve, whichever way the signal moves. For the molecule `Nc1cc(C(F)(F)F)ncc1C(=O)N1CCc2c3c(nn2-c2ccc(C4CCC4)cc2)CCN(C(=O)/C=C\Cl)CC31` (stereo not shown) [Compound 243, 1-(5-(4-amino-6-(trifluoromethyl)nicotinoyl)-2-(4-cyclobutylphenyl)-2,3,4,5,5a,6,8,9-octahydro-7H-1,2,5,7-tetraazabenzo[cd]azulen-7-yl)-3-chloroprop-2-en-1-one], the AC50 in assay [1] was in the range of 0.0015 to 0.005 µM; in assay [2], 0.015 to 0.055 µM; in assay [3], 1 to 100 nM; in assay [4], 1000 to 3000 nM.

For `C=CC(=O)N1CC(OCc2cccnc2)c2nn(-c3ccc(C4CC4)cc3)c3c2C(C1)N(C(=O)c1cnc(C(F)(F)F)cc1N)CC3` (stereo not shown) [Compound 251, 1-(5-(4-amino-6-(trifluoromethyl)nicotinoyl)-2-(4-cyclopropylphenyl)-9-(pyridin-3-ylmethoxy)-2,3,4,5,5a,6,8,9-octahydro-7H-1,2,5,7-tetraazabenzo[cd]azulen-7-yl)prop-2-en-1-one], the AC50 was below 0.0015 µM in assay [1], 0.005 to 0.015 µM in assay [2], 1 to 100 nM in assay [3] and above 3000 nM in assay [4].

As for `C=CC(=O)N1CCc2nn(-c3ccc(C(C)C)cc3O)c3c2C(C1)N(C(=O)c1ccc(Br)c2[nH]c(C(F)F)nc12)CC3` (stereo not shown) [Compound 174, 1-(5-(7-bromo-2-(difluoromethyl)-1H-benzo[d]imidazole-4-carbonyl)-2-(2-hydroxy-4-isopropylphenyl)-2,3,4,5,5a,6,8,9-octahydro-7H-1,2,5,7-tetraazabenzo[cd]azulen-7-yl)prop-2-en-1-one], the AC50 is below 0.0015 µM in assay [1], 0.0015 to 0.005 µM in assay [2], 1 to 100 nM in assay [3] and above 3000 nM in assay [4].

For the molecule `C=CC(=O)N1CCc2nn(-c3ccc(C(C)C)cc3)c3c2C(C1)N(C(=O)c1ccc(Br)c2[nH]c(N4CCC4)nc12)CC3` (stereo not shown) [Compound 9, 1-(5-(2-(azetidin-1-yl)-7-bromo-1H-benzo[d]imidazole-4-carbonyl)-2-(4-isopropylphenyl)-2,3,4,5,5a,6,8,9-octahydro-7H-1,2,5,7-tetraazabenzo[cd]azulen-7-yl)prop-2-en-1-one], the AC50 in assay [1] was 0.0015 to 0.005 µM; in assay [2], 0.015 to 0.055 µM; in assay [3], 1 to 100 nM; in assay [4], above 3000 nM.

With `C=CC(=O)N1CCc2nn(-c3ccc(C4CC4)c(F)c3O)c3c2C(C1)N(C(=O)c1cnc(C(F)(F)F)c(O)c1)CC3` (stereo not shown) [Compound 100, 1-(2-(4-cyclopropyl-3-fluoro-2-hydroxyphenyl)-5-(5-hydroxy-6-(trifluoromethyl)nicotinoyl)-2,3,4,5,5a,6,8,9-octahydro-7H-1,2,5,7-tetraazabenzo[cd]azulen-7-yl)prop-2-en-1-one], the AC50 was 0.0015 to 0.005 µM in assay [1], 0.015 to 0.055 µM in assay [2], 100 to 250 nM in assay [3] and above 3000 nM in assay [4].

As for `C=CC(=O)N1CCOc2nn(-c3ccc(C4CCC4)cc3)c3c2C(C1)N(C(=O)c1ccc(Br)c2[nH]ncc12)CC3` (stereo not shown) [Compound 42, 1-(5-(7-bromo-1H-indazole-4-carbonyl)-2-(4-cyclobutylphenyl)-2,3,4,5,5a,6,8,9-octahydro-7H-10-oxa-1,2,5,7-tetraazacycloocta[cd]inden-7-yl)prop-2-en-1-one], the AC50 in assay [1] was below 0.0015 µM; in assay [2] it was 0.005 to 0.015 µM; in assay [3], 1 to 100 nM; in assay [4], above 3000 nM.

`C=CC(=O)N1CCc2nn(-c3ccc(C4CCC4)cc3O)c3c2C(C1)N(C(=O)c1cnc(C(F)(F)F)cc1N)CC3` (stereo not shown) [Compound 138, 1-(5-(4-amino-6-(trifluoromethyl)nicotinoyl)-2-(4-cyclobutyl-2-hydroxyphenyl)-2,3,4,5,5a,6,8,9-octahydro-7H-1,2,5,7-tetraazabenzo[cd]azulen-7-yl)prop-2-en-1-one]: the AC50 in assay [1] is below 0.0015 µM; in assay [2], 0.005 to 0.015 µM; in assay [3], 1 to 100 nM; in assay [4], above 3000 nM.

In the case of `C=CC(=O)N1CCc2nn(-c3ccc(C45CC(C4)C5)cc3)c3c2C(C1)N(C(=O)c1cnc(C(F)(F)F)cc1N)CC3` (stereo not shown) [Compound 133, 1-(5-(4-amino-6-(trifluoromethyl)nicotinoyl)-2-(4-(bicyclo[1.1.1]pentan-1-yl)phenyl)-2,3,4,5,5a,6,8,9-octahydro-7H-1,2,5,7-tetraazabenzo[cd]azulen-7-yl)prop-2-en-1-one], the AC50 in assay [1] was below 0.0015 µM; in assay [2] it was 0.005 to 0.015 µM; in assay [3], 1 to 100 nM; in assay [4] it was above 3000 nM.

Consider `C=CC(=O)N1CC(C)c2nn(-c3ccc(C4CCC4)cc3O)c3c2C(C1)N(C(=O)c1cnc(C(F)(F)F)cc1N)CC3` (stereo not shown) [Compound 130, 1-(5-(4-amino-6-(trifluoromethyl)nicotinoyl)-2-(4-cyclobutyl-2-hydroxyphenyl)-9-methyl-2,3,4,5,5a,6,8,9-octahydro-7H-1,2,5,7-tetraazabenzo[cd]azulen-7-yl)prop-2-en-1-one], for which the AC50 is below 0.0015 µM in assay [1], 0.005 to 0.015 µM in assay [2], 1 to 100 nM in assay [3] and above 3000 nM in assay [4].

For `C=CC(=O)N1CC(F)c2nn(-c3ccc(C4CCC4)cc3)c3c2C(C1)N(C(=O)c1ccc(Br)c2[nH]cnc12)CC3` (stereo not shown) [Compound 28, 1-(5-(7-bromo-1H-benzo[d]imidazole-4-carbonyl)-2-(4-cyclobutylphenyl)-9-fluoro-2,3,4,5,5a,6,8,9-octahydro-7H-1,2,5,7-tetraazabenzo[cd]azulen-7-yl)prop-2-en-1-one], the AC50 in assay [1] is below 0.0015 µM; in assay [2] it was 0.0015 to 0.005 µM; in assay [3] it was 1 to 100 nM; in assay [4] it was 1000 to 3000 nM.

Regarding `C=CC(=O)N1CCc2nn(-c3ccc(C45CC(C4)C5)cc3)c3c2C(C1)N(C(=O)c1ccc(C(F)(F)F)c2[nH]ncc12)CC3` (stereo not shown) [Compound 19, 1-(2-(4-(bicyclo[1.1.1]pentan-1-yl)phenyl)-5-(7-(trifluoromethyl)-1H-indazole-4-carbonyl)-2,3,4,5,5a,6,8,9-octahydro-7H-1,2,5,7-tetraazabenzo[cd]azulen-7-yl)prop-2-en-1-one], the AC50 was 0.0015 to 0.005 µM in assay [1], 0.015 to 0.055 µM in assay [2], 1 to 100 nM in assay [3] and above 3000 nM in assay [4].

On to `C=CC(=O)N1CCc2nn(-c3ccc(C4CC4)cc3)c3c2C(C1)N(C(=O)c1ccc(Br)nc1C)CC3` (stereo not shown) [Compound 114, 1-(5-(6-bromo-2-methylnicotinoyl)-2-(4-cyclopropylphenyl)-2,3,4,5,5a,6,8,9-octahydro-7H-1,2,5,7-tetraazabenzo[cd]azulen-7-yl)prop-2-en-1-one], for which the AC50 in assay [1] is 0.005 to 0.015 µM; in assay [2] it was above 0.055 µM; in assay [3] it was 250 to 500 nM; in assay [4], above 3000 nM.

Take `C=CC(=O)N1CCc2nn(-c3ccc(C4CCC4)cc3O)c3c2C(C1)N(C(=O)c1ccc(Br)c2[nH]cnc12)CC3` (stereo not shown) [Compound 23, 1-(5-(7-bromo-1H-benzo[d]imidazole-4-carbonyl)-2-(4-cyclobutyl-2-hydroxyphenyl)-2,3,4,5,5a,6,8,9-octahydro-7H-1,2,5,7-tetraazabenzo[cd]azulen-7-yl)prop-2-en-1-one]: the AC50 in assay [1] was below 0.0015 µM; in assay [2], 0.0015 to 0.005 µM; in assay [3], 1 to 100 nM; in assay [4], above 3000 nM.

As for `C=CC(=O)N1CCc2nn(-c3ccc(C(C)C)c(F)c3N)c3c2C(C1)N(C(=O)c1cnc(C(F)(F)F)c(O)c1)CC3` (stereo not shown) [Compound 57, 1-(2-(2-amino-3-fluoro-4-isopropylphenyl)-5-(5-hydroxy-6-(trifluoromethyl)nicotinoyl)-2,3,4,5,5a,6,8,9-octahydro-7H-1,2,5,7-tetraazabenzo[cd]azulen-7-yl)prop-2-en-1-one], the AC50 is 0.0015 to 0.005 µM in assay [1], 0.015 to 0.055 µM in assay [2], 100 to 250 nM in assay [3] and above 3000 nM in assay [4].

As for `C=CC(=O)N1CCc2nn(-c3ccc(C4CCC4)cc3)c3c2C(C1)N(C(=O)c1ccc(Br)c2[nH]nc(N)c12)CC3` (stereo not shown) [Compound 158, 1-(5-(3-amino-7-bromo-1H-indazole-4-carbonyl)-2-(4-cyclobutylphenyl)-2,3,4,5,5a,6,8,9-octahydro-7H-1,2,5,7-tetraazabenzo[cd]azulen-7-yl)prop-2-en-1-one], the AC50 is below 0.0015 µM in assay [1], 0.0015 to 0.005 µM in assay [2], 1 to 100 nM in assay [3] and above 3000 nM in assay [4].

As to `C=CC(=O)N1CCc2nn(-c3ccc(C(F)(F)F)nc3N)c3c2C(C1)N(C(=O)c1ccc(Br)c2[nH]c(C(F)F)nc12)CC3` (stereo not shown) [Compound 136, 1-(2-(2-amino-6-(trifluoromethyl)pyridin-3-yl)-5-(7-bromo-2-(difluoromethyl)-1H-benzo[d]imidazole-4-carbonyl)-2,3,4,5,5a,6,8,9-octahydro-7H-1,2,5,7-tetraazabenzo[cd]azulen-7-yl)prop-2-en-1-one], the AC50 was 0.0015 to 0.005 µM in assay [1], 0.015 to 0.055 µM in assay [2], 100 to 250 nM in assay [3] and above 3000 nM in assay [4].

The values are drawn from US20250346600A1, “TRICYCLIC DERIVATIVES AND RELATED USES” (MOMA Therapeutics, Inc., priority 2023, published 2025).
